Assay results: patent USRE39197E1, “Cell adhesion-inhibiting antiinflammatory and immune-suppressive compounds” (Abbott Laboratories, priority 1998, dated 2006)

Legend:
[1] = tested on: adherence of JY-8 cells (expressing LFA-1) to immobilized ICAM-1; assay: ICAM-1/JY-8 Cell Adhesion Assay; type: cell-based, human
Procedure: ICAM-1/JT-8 Cell Adhesion Assay
For measurment measurement of inhibotory inhibitory activity in the cell-based adhesion assay, 96-well microtiter plates are were coated with 70 μL of recombinat recombinant ICAM-1/Ig (ICOS Corporation) at a concentration of 5 μg/mL in D-PBS w/o without Ca^++ or Mg++ or Mg^++ overnight at 4° C. The wells are were then washed twice with D-PBS and blocked by addition of 200 μL of D-PBS, 5% fish skin gelatin by incubation for 1 hour at room temperature. […] The percent inhibition of a candidate compound at a given concentration is was calculated using the following equation: [formula] and these concentration/inhibition data are were used to generate does response curves, from which IC50 values are were derived.

[2] = biological target: T1, interaction between the integrin LFA-1 and its adhesion partner ICAM-1 (Homo sapiens, UniProt P20701); assay: ICAM-1/LFA-1 Biochemical Interaction Assay; type: binding; conditions: 4 μM compound; recombinant LFA-1, biotinylated ICAM-1/Ig
T1 construct: Recombinant LFA-1 (100 μL of 0.7 μg/ml mL, ICOS Corporation) in D-PBS; purchased ICOS Corporation
Procedure: Compounds that antagonize the interaction between ICAM-1 and LFA-1 can be identified, and their activities quantitated, using both biochemical and cell-based adhesion assays. A primary biochemical assay measures the ability of the compound in question to block the interaction between the integrin LFA-1 and its adhesion partner ICAM-1, as described below:
ICAM-1/LFA-1 Biochemical Interaction Assay
In the biochemical assay, 100 μL of anti-LFA-1 antibody (ICOS Corporation) at a concentration of 5 μg/ml mL in Dulbecco's phosphate-buffered saaline (D-PBS) is used to coat wells of a 96-well microtiter plate overnight at 4° C. The wells are were then washed twice with wash buffer (D-PBS w/o Ca^++ or Mg^++, 0.05% Tween 20) and blocked by addition of 200 μL of D-PBS, 5% fish skin gelatin. Recombinant LFA-1 (100 μL of 0.7 μg/ml mL, ICOS Corporation) in D-PBS is was then added to each well. Incubation continues continued for 1 hour at room temperature and the wells are were washed twice with wash buffer. Serial dilutions of compounds being assayed as ICAM-1/LFA-1 antagonists, were prepared as 10 mM stock solutions in dimethyl sulfoxide (DMSO), are were diluted in D-PBS, 2 mM MgCl2, 1% fish skin gelatin and 50 μL of each dilution was added to duplicate wells. This is was followed by the addition of 50 μL of 0.8 μg/ml mL biotinylated recombinant ICAM-1/Ig (ICOS Corporation) to the wells and the plates are were incubated at room temperature for 1 hour. The wells are were then washed twice with wash buffer and 100 μL of Europium-labeled Streptavidin (Wallac Oy) diluted 1:100 in Delfia assay buffer (Wallac Oy), are was then added to the wells. Incubation proceeds proceeded for 1 hour at room temperature. The wells are were washed eight times with wash buffer and 100 μL of enhancement solution (Wallac Oy, cat. No. 1244-105) are was added to each well. Incubation proceeds proceeded for 5 minutes with constant mixing. Time-resolved fluorimetry measurements are were made using the a Victor 1420 Multilabel Counter (Wallac Oy) and the percent inhibition of each candidate compound is was calculated using the following equation: [formula] where “background” refers to wells that are were not coated with anti-LFA-1 antibody.

[3] = JY-8 cells on immobilized ICAM-1/Ig
[4] = Homo sapiens, JY-8, JY-8 cells on immobilized ICAM-1/Ig

T1 sequence (P20701 26-1170): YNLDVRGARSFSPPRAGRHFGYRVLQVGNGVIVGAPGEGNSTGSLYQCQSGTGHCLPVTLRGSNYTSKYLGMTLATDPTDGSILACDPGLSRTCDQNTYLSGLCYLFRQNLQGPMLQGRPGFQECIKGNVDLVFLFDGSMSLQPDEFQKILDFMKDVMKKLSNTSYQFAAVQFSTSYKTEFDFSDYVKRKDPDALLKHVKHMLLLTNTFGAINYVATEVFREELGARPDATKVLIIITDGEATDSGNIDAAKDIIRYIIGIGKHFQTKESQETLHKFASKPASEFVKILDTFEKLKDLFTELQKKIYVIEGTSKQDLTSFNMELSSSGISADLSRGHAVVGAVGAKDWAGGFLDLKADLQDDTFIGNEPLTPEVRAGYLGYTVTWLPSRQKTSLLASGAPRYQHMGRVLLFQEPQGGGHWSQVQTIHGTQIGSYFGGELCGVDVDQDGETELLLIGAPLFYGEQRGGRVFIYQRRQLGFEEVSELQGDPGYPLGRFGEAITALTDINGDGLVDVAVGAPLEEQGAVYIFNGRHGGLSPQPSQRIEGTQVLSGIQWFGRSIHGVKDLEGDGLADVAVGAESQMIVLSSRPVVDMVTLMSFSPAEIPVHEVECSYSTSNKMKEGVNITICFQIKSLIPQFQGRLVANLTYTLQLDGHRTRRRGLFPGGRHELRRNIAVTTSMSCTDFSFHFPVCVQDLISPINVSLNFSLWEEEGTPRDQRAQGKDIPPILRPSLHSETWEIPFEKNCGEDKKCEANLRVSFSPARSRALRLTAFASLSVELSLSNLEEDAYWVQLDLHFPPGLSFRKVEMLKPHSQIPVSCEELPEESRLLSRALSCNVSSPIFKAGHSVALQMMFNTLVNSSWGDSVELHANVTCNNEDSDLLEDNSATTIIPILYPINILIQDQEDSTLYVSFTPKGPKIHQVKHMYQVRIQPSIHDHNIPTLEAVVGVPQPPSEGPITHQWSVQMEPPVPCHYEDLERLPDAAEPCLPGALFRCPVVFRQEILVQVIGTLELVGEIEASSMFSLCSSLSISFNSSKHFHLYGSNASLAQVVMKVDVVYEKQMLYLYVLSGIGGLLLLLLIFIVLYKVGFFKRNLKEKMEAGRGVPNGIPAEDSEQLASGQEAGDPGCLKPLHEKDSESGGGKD
T1 sequence (P05107 23-769 partner): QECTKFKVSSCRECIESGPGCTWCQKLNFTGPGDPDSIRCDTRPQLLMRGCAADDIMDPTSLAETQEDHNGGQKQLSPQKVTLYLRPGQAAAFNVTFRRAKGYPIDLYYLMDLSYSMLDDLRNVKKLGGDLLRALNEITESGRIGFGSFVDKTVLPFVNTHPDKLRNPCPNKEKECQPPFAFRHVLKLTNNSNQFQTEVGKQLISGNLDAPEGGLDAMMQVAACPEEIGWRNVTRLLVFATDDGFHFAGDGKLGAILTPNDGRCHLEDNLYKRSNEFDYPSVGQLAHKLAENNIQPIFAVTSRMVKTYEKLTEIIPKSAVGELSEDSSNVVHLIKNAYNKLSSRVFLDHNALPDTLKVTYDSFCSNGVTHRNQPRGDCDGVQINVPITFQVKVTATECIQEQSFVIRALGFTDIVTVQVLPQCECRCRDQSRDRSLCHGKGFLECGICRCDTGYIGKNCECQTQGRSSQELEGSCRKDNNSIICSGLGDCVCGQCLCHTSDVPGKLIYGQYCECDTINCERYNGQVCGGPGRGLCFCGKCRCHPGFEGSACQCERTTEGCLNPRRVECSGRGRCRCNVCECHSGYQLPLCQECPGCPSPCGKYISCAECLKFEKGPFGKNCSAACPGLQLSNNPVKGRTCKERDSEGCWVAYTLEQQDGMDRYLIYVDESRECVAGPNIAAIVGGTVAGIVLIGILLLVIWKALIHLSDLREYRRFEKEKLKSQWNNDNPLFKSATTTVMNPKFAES

| IC50 [1, 3] [nM] | % inhibition @ 4 μM [2] [%] | IC50 [1, 4] [nM] | inhibition at 4 µM [2] [%] | Compound |
| --- | --- | --- | --- | --- |
| 540 | 88 | – | – | CN(C)N=Cc1ccccc1Sc1ccc(/C=C/C(=O)N2CCOCC2)cc1Cl [Example 61, (2-Formylphenyl)[2-chloro-4-(E-((1-morpholinyl)carbonyl)ethenyl)phenyl]sulfide, N,N-dimethyl hydrazone] |
| 11000 | 82 | – | – | O=C(/C=C/c1ccc(Sc2ccccc2Br)c(Cl)c1)N1CCc2ccccc2C1 [Example 25, (2-Bromophenyl)[2-chloro-4-(E-((2-tetrahydroisoquinolinyl)carbonyl)ethenyl)phenyl]sulfide] |
| 1100 | 79 | – | – | O=C(/C=C/c1ccc(Sc2ccc(Cl)cc2Cl)c(Cl)c1)N1CCN(CCO)CC1 [Example 13] |
| – | – | 520 | 80 | O=C(O)C1CCN(C(=O)/C=C/c2ccc(Sc3ccc(Cl)cc3Cl)c(Cl)c2)CC1 [Example 21, (2,4-Dichlorophenyl)[2-chloro-4-(E-((4-carboxypiperidin-1-yl)carbonyl)ethenyl)phenyl]sulfide] |
| – | – | 250 | 86 | CS(=O)(=O)N1CCN(C(=O)/C=C/c2ccc(Sc3ccc(Cl)cc3Cl)c([N+](=O)[O-])c2)CC1 [Example 39, (2,4-Dichlorophenyl)[2-nitro-4-(E-((4-(methanesulfonyl)piperazin-1-yl)carbonyl)ethenyl)phenyl]sulfide] |
| – | – | 320 | 90 | CC(=O)N1CCN(C(=O)/C=C/c2ccc(Sc3ccc(C)cc3)c([N+](=O)[O-])c2)CC1 [Example 36, (4-Methylphenyl)[2-nitro-4-(E-((4-acetylpiperazin-1-yl)carbonyl)ethenyl)phenyl]sulfide] |
| – | – | 160 | 84 | Cc1ccccc1Sc1ccc(/C=C/C(=O)N2CCN(c3ccccc3)CC2)cc1C(F)(F)F [Example 29, (2-Methylphenyl)[2-trifluoromethyl-4-(E-((4-phenylpiperazin-1-yl)carbonyl)ethenyl)phenyl]sulfide] |
| – | – | 3300 | 82 | O=C(O)C1CCCN(C(=O)/C=C/c2ccc(Sc3ccc(Cl)cc3Cl)c(Cl)c2)C1 (stereo not drawn) [Example 20, (2,4-Dichlorophenyl)[2-chloro-4-(E-((3-carboxypiperidin-1-yl)carbonyl)ethenyl)phenyl]sulfide] |
| – | – | 250 | 91 | O=C(C(=O)N1CCN(C(=O)/C=C/c2ccc(Sc3ccc(Cl)cc3Cl)c([N+](=O)[O-])c2)CC1)c1ccco1 [Example 38, (2,4-Dichlorophenyl)[2-nitro-4-(E-((4-(2-furoylcarbonyl)piperazin-1-yl)carbonyl)ethenyl)phenyl]sulfide] |
| – | – | 1200 | 86 | CC(=O)N1CCN(C(=O)/C=C/c2ccc(Sc3c(Cl)cccc3C=O)c(Cl)c2)CC1 [Example 65, (2-Chloro-6-formylphenyl)[2-chloro-4-(E-((4-acetylpiperazin-1-yl)carbonyl)ethenyl)phenyl]sulfide] |
| – | – | 200 | 89 | CC(=O)N1CCN(C(=O)/C=C/c2ccc(Sc3ccccc3CO)c([N+](=O)[O-])c2)CC1 [Example 48, (2-Hydroxymethylphenyl)[2-nitro-4-(E-((4-acetylpiperazin-1-yl)carbonyl)ethenyl)phenyl]sulfide] |
| – | – | 100 | 82 | O=C(O)C(=O)N1CCN(C(=O)/C=C/c2ccc(Sc3ccc(Cl)cc3Cl)c([N+](=O)[O-])c2)CC1 [Example 43, (2,4-Dichlorophenyl)[2-nitro-4-(E-((4-(carboxycarbonyl)piperazin-1-yl)carbonyl)ethenyl)phenyl]sulfide] |
| – | – | 660 | 85 | O=C(/C=C/c1ccc(Sc2ccc(Cl)cc2Cl)c(Cl)c1)NCCCN1CCCC1=O [Example 6, (2,4-Dichlorophenyl)[2-chloro-4-(E-((3-(2-oxopyrrolidin-1-yl)propylamino)carbonyl)ethenyl)phenyl]sulfide] |
| – | – | – | 92 | Cc1ccccc1Sc1ccc(/C=C/C(=O)NC2CC2)cc1C(F)(F)F [Example 31, (2-Methylphenyl)[2-trifluoromethyl-4-(E-((cyclopropylamino)carbonyl)ethenyl)phenyl]sulfide] |
| 510 | 83 | – | – | CCOC(=O)CN(C)Cc1ccccc1Sc1ccc(/C=C/C(=O)N2CCOCC2)cc1Cl [Example 56, (2-((N-Ethoxycarbonylmethyl-N-methyl)aminomethyl)phenyl)[2-chloro-4-(E-((1-morpholinyl)carbonyl)ethenyl)phenyl]sulfide] |
| 370 | 87 | – | – | Cc1ccccc1Sc1ccc(/C=C/C(=O)NCCN2CCOCC2)cc1C(F)(F)F [Example 28, (2-Methylphenyl)[2-trifluoromethyl-4-(E-((2-(1-morpholinyl)ethylamino)carbonyl)ethenyl)phenyl]sulfide] |
| – | – | 300 | – | O=C(/C=C/c1ccc(Sc2ccc(Cl)cc2Cl)c([N+](=O)[O-])c1)NCCCN1CCCC1=O [Example 33, (2,4-Dichlorophenyl)[2-nitro-4-(E-((3-(2-oxopyrrolidin-1-yl)propylamino)carbonyl)ethenyl)phenyl]sulfide] |
| 700 | – | – | – | O=C(/C=C/c1ccc(Sc2ccccc2CN2CCOCC2)c(Cl)c1)N1CCOCC1 [Example 53, (2-(1-Morpholinylmethyl)phenyl)[2-chloro-4-(E-((1-morpholinyl)carbonyl)ethenyl)phenyl]sulfide] |
| – | – | 13000 | – | O=C(/C=C/c1ccccc1Sc1ccc(Cl)cc1Cl)NCCCn1ccnc1 [Example 2, (2,4-Dichlorophenyl)[2-(E-((3-(1-imidazolyl)propylamino)carbonyl)ethenyl)phenyl]sulfide] |
| – | – | 1500 | – | O=C(/C=C/c1ccc(Sc2ccc(Cl)cc2Cl)c(Cl)c1)N1CCN(c2ccccn2)CC1 [Example 10, (2,4-Dichlorophenyl)[2-chloro-4-(E-((4-(2-pyridyl)piperazin-1-yl)carbonyl)ethenyl)phenyl]sulfide] |
| – | – | 680 | – | O=C(/C=C/c1ccc(Sc2ccc(Cl)cc2Cl)c(Cl)c1)NCCCCCCO [Example 4, (2,4-Dichlorophenyl)[2-chloro-4-(E-((6-hydroxyhexylamino)carbonyl)ethenyl)phenyl]sulfide] |
| – | 81 | – | – | O=C(/C=C/c1ccc(Sc2ccc(Cl)cc2Cl)c(Br)c1)N1CCOCC1 [Example 64, (2,4-Dichlorophenyl)[2-bromo-4-(E-((1-morpholinyl)carbonyl)ethenyl)phenyl]sulfide] |
| 1600 | – | – | – | O=CN1CCN(Cc2ccccc2Sc2ccc(/C=C/C(=O)N3CCOCC3)cc2Cl)CC1 [Example 58, (2-(4-Formylpiperazin-1-ylmethyl)phenyl)[2-chloro-4-(E-((1-morpholinyl)carbonyl)ethenyl)phenyl]sulfide] |

| Compound | IC50 [1, 3] [nM] | % inhibition @ 4 μM [2] [%] | IC50 [1, 4] [nM] | inhibition at 4 µM [2] [%] |
| --- | --- | --- | --- | --- |
| CC(C)(C)OC(=O)N1CCN(C(=O)/C=C/c2ccc(Sc3ccc(Cl)cc3Cl)c([N+](=O)[O-])c2)CC1 [Example 37, (2,4-Dichlorophenyl)[2-nitro-4-(E-((4-(tert-butoxycarbonyl)piperazin-1-yl)carbonyl)ethenyl)phenyl]sulfide] | – | – | 140 | 91 |
| CC(C)(C)OC(=O)CN1CCN(C(=O)/C=C/c2ccc(Sc3ccc(Cl)cc3Cl)c([N+](=O)[O-])c2)CC1 [Example 42, (2,4-Dichlorophenyl)[2-nitro-4-(E-((4-(tert-butoxycarbonylmethyl)piperazin-1-yl)carbonyl)ethenyl)phenyl]sulfide] | – | – | 520 | 56 |
